# Molecular target: T1, human orexin type 2 receptor (hOX2R) (Homo sapiens, UniProt O43614)
# T1 construct: expressed in transfected cells
# T1 sequence (O43614 1-444): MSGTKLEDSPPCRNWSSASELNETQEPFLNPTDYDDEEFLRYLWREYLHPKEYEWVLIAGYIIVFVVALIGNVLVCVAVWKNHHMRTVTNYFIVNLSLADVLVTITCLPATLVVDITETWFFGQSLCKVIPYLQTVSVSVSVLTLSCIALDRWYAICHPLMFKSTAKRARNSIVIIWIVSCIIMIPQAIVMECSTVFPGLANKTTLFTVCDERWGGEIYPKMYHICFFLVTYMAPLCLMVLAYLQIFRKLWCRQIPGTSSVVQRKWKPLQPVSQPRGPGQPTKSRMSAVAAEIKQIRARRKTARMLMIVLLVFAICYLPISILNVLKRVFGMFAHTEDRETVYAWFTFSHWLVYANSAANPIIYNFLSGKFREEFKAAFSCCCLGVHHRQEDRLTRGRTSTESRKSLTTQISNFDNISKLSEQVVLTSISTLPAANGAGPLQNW
# Assay: Measurement of orexin type 2 receptor agonist activity (Fluo-4 calcium fluorescence, CHO cells forcibly expressing human OX2 receptor)
# Format: cell-based
# Settings: test compound 3 μM, DMSO = 0%, orexin A (human) 10 nM = 100%
# Excerpt: Experimental Example 1: Obtainment of Cell Stably Expressing Human Orexin Type 2 Receptor (hOX2R)
# To obtain a cell clone stably expressing human orexin type 2 receptor, human orexin type 2 receptor cDNA was inserted into pcDNA3.1(+) plasmid vector (Invitrogen), and a plasmid DNA for expression of human orexin type 2 receptor (pcDNA3.1(+)/hOX2R) was cloned. The plasmid DNA was introduced into CHO-dhfr cell by an electroporation method, and human orexin type 2 receptor expressing clone cells were obtained by limiting dilution method by using G418 drug resistance as a selection marker.
# Experimental Example 2: Measurement of Orexin Type 2 Receptor Agonist Activity
# CHO cells forcibly expressing human OX2 receptor were seeded in each well of 384 well black transparent bottom plate (BD Falcon) at 7,500 cells/well, and cultured for one day in a 5% CO2 incubator at 37° C. After removal of the medium in the cell plate, assay buffer A containing a calcium indicator (HBSS (Life Technologies), 20 mM HEPES (Life Technologies), 0.1% BSA (Wako Pure Chemical Industries, Ltd.), 2.5 μg/mL Fluo-4 AM (DOJINDO Chemical), 0.08% Pluronic F127 (DOJINDO Chemical), 1.25 mM probenecid (DOJINDO Chemical)) was added at 30 μL/well. The plate was stood for 30 min in a 5% CO2 incubator at 37° C., and further stood at room temperature for 30 min. A test compound prepared by diluting with assay buffer B (HBSS, 20 mM HEPES, 0.1% BSA) was added at 10 μL/well, and the fluorescence value was measured by FDSSpCELL (Hamamatsu Photonics K.K.) every one sec for 1 min, and thereafter every two sec for 1 min 40 sec. The activity (%) of the test compound was calculated assuming that variation in the fluorescence value when DMSO was added instead of the test compound was 0% […], and variation in the fluorescence value when orexin A (human) (PEPTIDE INSTITUTE, INC.) was added at the final concentration of 10 nM was 100% […]. The activity of each compound at the concentration of 3 μM was shown below.
row,SMILES,"OX2R agonist activity (3 μM, %) [%]"
1,"CO[C@@H]1CN(C(=O)c2cc(C)ccc2C)C[C@H]1Oc1cccc(CS(=O)(=O)N2CCCC2c2nccs2)c1 (relative stereo) [Example 40, trans-(2,5-dimethylphenyl)(3-methoxy-4-(3-(((2-(1,3-thiazol-2-yl)pyrrolidin-1-yl)sulfonyl)methyl)phenoxy)pyrrolidin-1-yl)methanone]",79
2,"CO[C@@H]1CN(C(=O)c2cc(C)ccc2C)C[C@H]1Oc1cccc(NS(=O)(=O)N(C)C2CC2)c1 (relative stereo) [Example 44, trans-N-cyclopropyl-N′-(3-((1-(2,5-dimethylbenzoyl)-4-methoxypyrrolidin-3-yl)oxy)phenyl)-N-methylsulfuric diamide]",73
3,"CO[C@@H]1CN(C(=O)c2cc(C)ccc2C)C[C@H]1Oc1cccc(NS(=O)(=O)N(C)C2COC2)c1 (relative stereo) [Example 45, trans-N′-(3-((1-(2,5-dimethylbenzoyl)-4-methoxypyrrolidin-3-yl)oxy)phenyl)-N-methyl-N-oxetan-3-ylsulfuric diamide]",82
4,"CO[C@@H]1CN(C(=O)c2cc(C)ccc2C)C[C@H]1Oc1cccc(NS(=O)(=O)N(C)C2CCOC2)c1 (relative stereo) [Example 46, trans-N′-(3-((1-(2,5-dimethylbenzoyl)-4-methoxypyrrolidin-3-yl)oxy)phenyl)-N-methyl-N-(tetrahydrofuran-3-yl)sulfuric diamide]",94
5,"CO[C@@H]1CN(C(=O)c2cc(C)ccc2C)C[C@H]1Oc1cccc(NS(=O)(=O)N(C)C2CCOCC2)c1 (relative stereo) [Example 47, trans-N′-(3-((1-(2,5-dimethylbenzoyl)-4-methoxypyrrolidin-3-yl)oxy)phenyl)-N-methyl-N-(tetrahydro-2H-pyran-4-yl)sulfuric diamide]",106
6,"CO[C@@H]1CN(C(=O)c2cc(C)ccc2C)C[C@H]1Oc1cccc(NS(=O)(=O)N2CCC2)c1 (relative stereo) [Example 48, trans-N-(3-((1-(2,5-dimethylbenzoyl)-4-methoxypyrrolidin-3-yl)oxy)phenyl)azetidine-1-sulfonamide]",62
7,"COCC1CCCN1S(=O)(=O)Nc1cccc(O[C@@H]2CN(C(=O)c3cc(C)ccc3C)C[C@H]2OC)c1 (relative stereo) [Example 50, trans-N-(3-((1-(2,5-dimethylbenzoyl)-4-methoxypyrrolidin-3-yl)oxy)phenyl)-2-(methoxymethyl)pyrrolidine-1-sulfonamide]",87
8,"CO[C@@H]1CN(C(=O)c2cc(C)ccc2C)C[C@H]1Oc1cccc(NS(=O)(=O)N2CCCC2c2ccncc2)c1 (relative stereo) [Example 52, trans-N-(3-((1-(2,5-dimethylbenzoyl)-4-methoxypyrrolidin-3-yl)oxy)phenyl)-2-(pyridin-4-yl)pyrrolidine-1-sulfonamide]",83
9,"CO[C@@H]1CN(C(=O)c2cc(C)ccc2C)C[C@H]1Oc1cccc(NS(=O)(=O)N2CCC(c3cccnc3)C2)c1 (relative stereo) [Example 53, trans-N-(3-((1-(2,5-dimethylbenzoyl)-4-methoxypyrrolidin-3-yl)oxy)phenyl)-3-(pyridin-3-yl)pyrrolidine-1-sulfonamide]",99
10,"CO[C@@H]1CN(C(=O)c2cc(C)ccc2C)C[C@H]1Oc1cccc(NS(=O)(=O)N2CCOC(C)C2)c1 (relative stereo) [Example 54, trans-N-(3-((1-(2,5-dimethylbenzoyl)-4-methoxypyrrolidin-3-yl)oxy)phenyl)-2-methylmorpholine-4-sulfonamide]",85
11,"CO[C@@H]1CN(C(=O)c2cc(C)ccc2C)C[C@H]1Oc1cccc(NS(=O)(=O)N(C)Cc2cccnc2)c1 (relative stereo) [Example 61, trans-N′-(3-((1-(2,5-dimethylbenzoyl)-4-methoxypyrrolidin-3-yl)oxy)phenyl)-N-methyl-N-(pyridin-3-ylmethyl)sulfuric diamide]",87
12,"CO[C@@H]1CN(C(=O)c2cc(C)ccc2C)C[C@H]1Oc1cccc(NS(=O)(=O)N(C)CC2CCOC2)c1 (relative stereo) [Example 62, trans-N′-(3-((1-(2,5-dimethylbenzoyl)-4-methoxypyrrolidin-3-yl)oxy)phenyl)-N-methyl-N-(tetrahydrofuran-3-ylmethyl)sulfuric diamide]",74
13,"CO[C@@H]1CN(C(=O)c2cc(C)ccc2C)C[C@H]1Oc1cccc(NS(=O)(=O)N2CCC23COC3)c1 (relative stereo) [Example 63, trans-N-(3-((1-(2,5-dimethylbenzoyl)-4-methoxypyrrolidin-3-yl)oxy)phenyl)-6-oxa-1-azaspiro[3.3]heptane-1-sulfonamide]",77
14,"COC1CN(C(=O)c2cc(C)ccc2C)CC1Oc1cccc(NS(=O)(=O)N2C[C@H]3C[C@H]2C3)c1 (relative stereo) [Example 64, trans-N-(3-((1-(2,5-dimethylbenzoyl)-4-methoxypyrrolidin-3-yl)oxy)phenyl)-2-azabicyclo[2.1.1]hexane-2-sulfonamide]",75
15,"COc1ccccc1C1CCCN1S(=O)(=O)Nc1cccc(O[C@@H]2CN(C(=O)c3cc(C)ccc3C)C[C@H]2OC)c1 (relative stereo) [Example 66, trans-N-(3-((1-(2,5-dimethylbenzoyl)-4-methoxypyrrolidin-3-yl)oxy)phenyl)-2-(2-methoxyphenyl)pyrrolidine-1-sulfonamide]",72
16,"CO[C@@H]1CN(C(=O)c2cc(C)ccc2C)C[C@H]1Oc1cccc(NS(=O)(=O)N2CCCC2Cc2cccnc2)c1 (relative stereo) [Example 67, trans-N-(3-((1-(2,5-dimethylbenzoyl)-4-methoxypyrrolidin-3-yl)oxy)phenyl)-2-(pyridin-3-ylmethyl)pyrrolidine-1-sulfonamide]",82
17,"CO[C@@H]1CN(C(=O)c2cc(C)ccc2C)C[C@H]1Oc1cccc(NS(=O)(=O)N2CCC(C)C2)c1 (relative stereo) [Example 68, trans-N-(3-((1-(2,5-dimethylbenzoyl)-4-methoxypyrrolidin-3-yl)oxy)phenyl)-3-methylpyrrolidine-1-sulfonamide]",84
18,"CO[C@@H]1CN(C(=O)c2cc(C)ccc2C)C[C@H]1Oc1cccc(NS(=O)(=O)N2CCC3(CC3)C2)c1 (relative stereo) [Example 69, trans-N-(3-((1-(2,5-dimethylbenzoyl)-4-methoxypyrrolidin-3-yl)oxy)phenyl)-5-azaspiro[2.4]heptane-5-sulfonamide]",82
19,"CO[C@@H]1CN(C(=O)c2cc(C)ccc2C)C[C@H]1Oc1cccc(NS(=O)(=O)N2CCC3(COC3)C2)c1 (relative stereo) [Example 70, trans-N-(3-((1-(2,5-dimethylbenzoyl)-4-methoxypyrrolidin-3-yl)oxy)phenyl)-2-oxa-6-azaspiro[3.4]octane-6-sulfonamide]",90
20,"COC1CN(C(=O)c2cc(C)ccc2C)CC1Oc1cccc(NS(=O)(=O)N2CC[C@@H]3C[C@H]32)c1 (relative stereo) [Example 72, trans-N-(3-((1-(2,5-dimethylbenzoyl)-4-methoxypyrrolidin-3-yl)oxy)phenyl)-2-azabicyclo[3.1.0]hexane-2-sulfonamide]",74
21,"COC1CN(C(=O)c2cc(C)ccc2C)CC1Oc1cccc(NS(=O)(=O)N2C[C@@H]3C[C@H]3C2)c1 (relative stereo) [Example 73, trans-N-(3-((1-(2,5-dimethylbenzoyl)-4-methoxypyrrolidin-3-yl)oxy)phenyl)-3-azabicyclo[3.1.0]hexane-3-sulfonamide]",91
